Assay results: the supplement of paper PMC10307832

What was measured:
Test in all cases: relative viability (nuclei count vs DMSO), 5 days (fraction); higher = more cells survive
Cediranib + Vorinostat = compound: COc1cc2c(Oc3ccc4[nH]c(C)cc4c3F)ncnc2cc1OCCCN1CCCC1 [Cediranib] + O=C(CCCCCCC(=O)Nc1ccccc1)NO [Vorinostat] (partner 1 µM)
In short: (§1)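 After 5 days of treatment, lung cancer cells in 1536-well plates were fixed and stained in a single step (final 0.05% Triton X-100, 1% formaldehyde, 1 ug/ml Hoechst) and their nuclei counted on 4× images. Treatment had been applied by pin tool the day after seeding as one drug alone or as a fixed anchor-drug dose with five library-drug doses (not always all listed) in √10 steps. Relative viability is the nuclei count of treated wells divided by that of vehicle wells, and values are medians of duplicate plates.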

Decitabine + Navitoclax = compound: Nc1ncn([C@H]2C[C@H](O)[C@@H](CO)O2)c(=O)n1 [Decitabine] + CC1(C)CCC(c2ccc(Cl)cc2)=C(CN2CCN(c3ccc(C(=O)NS(=O)(=O)c4ccc(N[C@H](CCN5CCOCC5)CSc5ccccc5)c(S(=O)(=O)C(F)(F)F)c4)cc3)CC2)C1 [Navitoclax] (partner 0.5 µM)
In short: as §1

Cediranib + Trametinib = compound: COc1cc2c(Oc3ccc4[nH]c(C)cc4c3F)ncnc2cc1OCCCN1CCCC1 [Cediranib] + CC(=O)Nc1cccc(-n2c(=O)n(C3CC3)c(=O)c3c(Nc4ccc(I)cc4F)n(C)c(=O)c(C)c32)c1 [Trametinib] (partner 0.02 µM)
In short: as §1

Row | Cell Line | relative viability (Cediranib + Vorinostat; first compound 0.04 µM) | relative viability (Cediranib + Vorinostat; first compound 0.4 µM) | relative viability (Cediranib + Vorinostat; first compound 1.265 µM) | relative viability (Cediranib + Vorinostat; first compound 4 µM) | relative viability (Decitabine + Navitoclax; first compound 0.04 µM) | relative viability (Decitabine + Navitoclax; first compound 0.1265 µM) | relative viability (Decitabine + Navitoclax; first compound 0.4 µM) | relative viability (Decitabine + Navitoclax; first compound 1.265 µM) | relative viability (Decitabine + Navitoclax; first compound 4 µM) | relative viability (Cediranib + Trametinib; first compound 0.04 µM) | relative viability (Cediranib + Trametinib; first compound 0.4 µM) | relative viability (Cediranib + Trametinib; first compound 1.265 µM) | relative viability (Cediranib + Trametinib; first compound 4 µM) | relative viability (Cediranib + Vorinostat; first compound 0.1265 µM) | relative viability (Cediranib + Trametinib; first compound 0.1265 µM)
1 | NCI-H3122 | 1.02 | 0.985 | 1.13 | 1.07 | 0.999 | 0.984 | 0.97 | 0.886 | 0.76 | 0.226 | 0.218 | 0.242 | 0.282 | – | –
2 | PC-3 [JPC-3] | 0.771 | 0.765 | 0.855 | 0.797 | – | 0.601 | 0.526 | 0.463 | 0.51 | 0.69 | 0.681 | 0.708 | 0.662 | – | –
3 | PC-14 | 0.831 | 0.744 | 0.801 | 0.451 | 0.51 | 0.556 | 0.231 | 0.162 | 0.166 | 0.862 | 0.66 | 0.582 | 0.519 | 0.755 | 0.664
4 | RERF-LC-KJ | 0.805 | 0.62 | 0.674 | 0.761 | 0.779 | 0.844 | 0.279 | 0.597 | 0.618 | 0.875 | 0.839 | 0.762 | 0.985 | 0.226 | 0.902
5 | SK-LU-1 | 0.881 | 0.685 | 0.775 | 0.773 | 0.262 | 0.385 | 0.23 | 0.335 | 0.282 | 0.547 | 0.445 | 0.381 | 0.481 | 0.777 | 0.377
6 | SK-MES-1 | 1.17 | 0.966 | 1.05 | 1.21 | 0.976 | 0.84 | 0.501 | 0.33 | 0.303 | 0.606 | 0.52 | 0.527 | 0.562 | 1.04 | 0.553
7 | SW 1573 | 1.03 | 0.991 | 0.582 | 0.806 | 1.15 | 0.89 | 0.687 | 0.356 | 0.217 | 0.667 | 0.57 | 0.55 | 0.496 | 0.532 | 0.624
